Here are results for one molecule from patent US6503698B1, “Cryopreservation of swine embryos” (The United States of America as represented by the …, priority 2000, dated 2003).

The structures appear in SMILES notation. Marks after values point to notes of the source that are not given here.

The assay has as its system swine embryos. Briefly: Progressive development in vitro of swine embryos after cryopreservation by vitrification under the influence of microfilament stabilizer cytochalasin-b. The format is cell-based. To be noted: for % dev (progressive development in vitro after vitrification) / dev (number of embryos developed in vitro after vitrification): + cytochalasin-b. Here is the method: Cyto-b is added to the medium for MF depolymerization. Studies were carried out which documented microfilament (MF) alterations during swine embryo vitrification (Dobrinsky et al. 2000, supra).
Developmental appraisals of the centrifuged cryopreserved embryos were carried out both in vitro and in vivo. For in vitro studies, morulae/blastocysts were cultured for 72 hours post-treatment. After culture, embryos were morphologically evaluated for their developmental progression. […] Since all morulae would have to develop into
Embryos were vitrified as described by Dobrinsky and Johnson (supra) in vitrification medium [6.5M glycerol, 6% bovine serum albumin-V (BSA-V; Sigma Chemical Co., St. Louis, Mo.)]. Prior to cryopreservation, for microfilament depolymerization, embryos were incubated at 39° C. in 5% CO2 and air, 95% humidity for 30-45 min in culture medium containing 7.5 μg/ml cyto-b (Sigma Chemical co., supra; stock=5 mg/ml 95% food grade EtOH). Following incubation in cyto-b, embryos were removed from culture and washed 3 times in 2 ml handling medium with cyto-b for 5 min and then equilibrated in 1 ml handling medium containing 6% BSA-V and cyto-b for 5 min. Embryos were then washed in vitrification equilibration medium (25% glycerol v/v, 6% BSA-V) containing cyto-b, then placed in 20 μl of vitrification equilibration medium containing cyto-b in a 1.5-ml microcentrifuge tube. The tube was placed and counterbalanced in an Eppendorf 5415 microcentrifuge and centrifuged for 13 min at 13,000 rpm. During centrifugation, embryos were dehydrated and equilibrated with glycerol. Total time in vitrification equilibration medium was about 20 min, including the centrifugation time.

With `C=C1[C@@H](C)[C@H]2[C@H](Cc3ccccc3)NC(=O)[C@]23OC(=O)/C=C/[C@H](O)CCC[C@@H](C)C/C=C/[C@H]3[C@@H]1O` [Cytochalasin-b], the “% dev (progressive development in vitro after vitrification)” value is recorded as 90^c;z % (HB1 = hatched blastocysts <400 μm diameter), 41% (HB2 = hatched blastocysts >400 μm diameter), 6^a % (MB = morulae/early blastocysts) and 60^b;z % (XB = expanded blastocysts). Moreover, the “dev (number of embryos developed in vitro after vitrification)” value reads like this: (HB1 = hatched blastocysts <400 μm diameter, n 48) 43; (HB2 = hatched blastocysts >400 μm diameter, n 22) 9; (MB = morulae/early blastocysts, n 17) 1; (XB = expanded blastocysts, n 25) 15. The “survival and development of expanded and hatched blastocysts after vitrification” value (expanded and hatched blastocysts, versus control without cyto-b) was “significantly (p<0.05) improved survival and development”. Moreover, for the setting “morulae/early blastocysts, versus control without cyto-b”, the “morula/early blastocyst viability after vitrification” value is “did not appear to improve”.
